Counter-ions that a name gives are not always drawn. Like-named read-outs stand apart in the source and are kept apart here.

Data set [1] has as its target Vpu protein (Human immunodeficiency virus type 1 group M subtype B, UniProt P05919). The settings on record: halo of growth score between zero and six; XL1-blue E. coli with pPL-Vpu, no adenine, 37° C.
For data set [2], the target named is 229E-CoV E-protein (Human coronavirus 229E, UniProt P19741). Nature of the data set: Bacterial bio-assay for 229E-CoV E-protein. Conditions: halo of growth score; E. coli expressing E protein at 37° C.
Data set [3] deals with SARS-CoV E protein (Severe acute respiratory syndrome coronavirus, UniProt P59637). The data set is classed as cell-based.
Data set [4] concerns MHV (strain MHV-A59). Conditions: L929 cells.

Turning to `N=C(N)NC(=O)/C=C/c1ccccc1F` [2-fluorocinnamoylguanidine], the “Vpu Inhibition (score/# of times tested)” value in data set [1] is 2.1/2 score. The “229E E protein Inhibition (score)” value in data set [2] amounted to 0.4 score. In addition, in data set [3], the “SARS E protein Inhibition (score/# of times tested)” value (“SARS E protein Inhibition” below) is 0.63/1 score. The “Percent reduction in Plaque number/# experiments” value (from here on “Percent reduction”) is 73/1% in data set [4] (10 uM) and 76/1% in data set [4] (20 uM).
Turning to `Cc1ccccc1/C=C/C(=O)NC(=N)N` [2-methylcinnamoylguanidine], the “Vpu Inhibition (score/# of times tested)” value in data set [1] is 3.1/2 score. Moreover, in data set [2], the “229E E protein Inhibition (score)” value is 0.5 score. In addition, the “SARS E protein Inhibition” value in data set [3] is 1.00/1 score. The figures for the “Percent reduction” value in data set [4] (1 uM), in data set [4] (10 uM) and in data set [4] (20 uM) were 20/1%, 82/1% and 91/1%, respectively.
In the case of `NC(N)=NC(=O)c1ccc2ccccc2c1` [2-napthoylguanidine], in data set [1], the “Vpu Inhibition (score/# of times tested)” value is 2.7/11 score. In data set [2], the “229E E protein Inhibition (score)” value was 0.3 score. Further, the “SARS E protein Inhibition” value in data set [3] is 1.38/2 score. The “Percent reduction” value is 34/2% in data set [4] (1 uM), 36/2% in data set [4] (10 uM) and 67/2% in data set [4] (20 uM).
Consider `N=C(N)NC(=O)/C=C/c1ccc2ccccc2c1` [3-(2-napthyl)acryloylguanidine], for which the “Vpu Inhibition (score/# of times tested)” value in data set [1] was 1.56/2 score. For the same compound, the “229E E protein Inhibition (score)” value in data set [2] was 3.0 score. Further, the “SARS E protein Inhibition” value in data set [3] is 3.88/1 score. Moreover, the “Percent reduction” value is 40/1% in data set [4] (1 uM), 93/1% in data set [4] (10 uM) and 93/1% in data set [4] (20 uM).
As to `N=C(N)NC(=O)/C=C/c1cccc(F)c1` [3-fluorocinnamoylguanidine], the “Vpu Inhibition (score/# of times tested)” value in data set [1] is 1.9/2 score. In addition, the “229E E protein Inhibition (score)” value in data set [2] amounted to 0.5 score. The “SARS E protein Inhibition” value in data set [3] is 1.50/1 score. Besides, the “Percent reduction” value is reported as 31/1% in data set [4] (1 uM), 93/2% in data set [4] (10 uM) and 100/1% in data set [4] (20 uM).
Take `N=C(N)NC(=O)/C=C/c1cccc(-c2ccccc2)c1` [3-phenylcinnamoylguanidine]: the “Vpu Inhibition (score/# of times tested)” value in data set [1] is listed as 2.54/3 score. In addition, in data set [2], the “229E E protein Inhibition (score)” value is 2.9 score. In data set [3], the “SARS E protein Inhibition” value was 3.13/1 score. For the same compound, the “Percent reduction” value in data set [4] (1 uM) is listed as 64/3%; in data set [4] (10 uM), 86/2%. The “Toxic (noted in place of plaque reduction)” value in data set [4] (20 uM) is “Toxic”.
For `CC(C)(C)c1cccc(/C=C/C(=O)NC(=N)N)c1` [3-t-butylcinnamoylguanidine], the “Vpu Inhibition (score/# of times tested)” value in data set [1] was 2.06/2 score. Further, in data set [2], the “229E E protein Inhibition (score)” value was found to be 3.9 score. Besides, the “SARS E protein Inhibition” value in data set [3] is listed as 2.00/1 score. In addition, the “Percent reduction” value was 49/2% in data set [4] (1 uM) and 94/3% in data set [4] (10 uM). Besides, the “Toxic (noted in place of plaque reduction)” value in data set [4] (20 uM) was “Toxic”.
As for `N=C(N)NC(=O)/C=C/c1ccc(C(F)(F)F)cc1` [4-(trifluoromethyl)cinnamoylguanidine], the “Vpu Inhibition (score/# of times tested)” value in data set [1] is listed as 2.2/2 score. In data set [2], the “229E E protein Inhibition (score)” value was 2.3 score. The “SARS E protein Inhibition” value in data set [3] is 2.75/1 score. The entries for the “Percent reduction” value in data set [4] (1 uM), in data set [4] (10 uM) and in data set [4] (20 uM) were 46/3%, 95/3% and 97/3%, respectively.
`CCOc1ccc(/C=C/C(=O)NC(=N)N)cc1` [4-ethoxycinnamoylguanidine]: the “Vpu Inhibition (score/# of times tested)” value in data set [1] is given as 0.69/2 score. Moreover, the “229E E protein Inhibition (score)” value in data set [2] came to 0.1 score. Moreover, in data set [3], the “SARS E protein Inhibition” value is given as 2.48/2 score. Moreover, the “Percent reduction” value in data set [4] (1 uM) is listed as 40/1%; in data set [4] (10 uM) it was 92/1%; in data set [4] (20 uM), 96/1%.
Turning to `N=C(N)NC(=O)/C=C/c1ccc(F)cc1` [4-fluorocinnamoylguanidine], the “Vpu Inhibition (score/# of times tested)” value in data set [1] is 1.1/2 score. In addition, in data set [2], the “229E E protein Inhibition (score)” value worked out at 0.4 score. Besides, in data set [3], the “SARS E protein Inhibition” value is recorded as 1.25/1 score. The figures for the “Percent reduction” value in data set [4] (1 uM), in data set [4] (10 uM) and in data set [4] (20 uM) were 20/1%, 83/1% and 86/1%, respectively.
For `Cc1ccc(/C=C/C(=O)NC(=N)N)cc1` [4-methylcinnamoylguanidine], the “Vpu Inhibition (score/# of times tested)” value in data set [1] is reported as 2.1/2 score. Further, the “229E E protein Inhibition (score)” value in data set [2] was 0.3 score. Also, the “SARS E protein Inhibition” value in data set [3] is given as 1.25/1 score. Also, the “Percent reduction” value is listed as 20/1% in data set [4] (1 uM), 89/1% in data set [4] (10 uM) and 93/1% in data set [4] (20 uM).
Consider `N=C(N)NC(=O)/C=C/c1ccc(-c2ccccc2)cc1` [4-phenylcinnamoylguanidine], for which, in data set [1], the “Vpu Inhibition (score/# of times tested)” value is 1.1/2 score. Moreover, the “229E E protein Inhibition (score)” value in data set [2] was determined as 1.0 score. In data set [3], the “SARS E protein Inhibition” value was 2.75/2 score. Besides, the results for the “Percent reduction” value in data set [4] (1 uM), in data set [4] (10 uM) and in data set [4] (20 uM) were 21/3%, 36/1% and 53/1%, respectively.
With `N=C(N)NC(=O)/C=C/C=C/c1cccc(Br)c1` [5-(3′-bromophenyl)penta-2,4-dienoylguanidine], in data set [1], the “Vpu Inhibition (score/# of times tested)” value was 2.5/2 score. The “229E E protein Inhibition (score)” value in data set [2] is recorded as 0.3 score. Moreover, the “SARS E protein Inhibition” value in data set [3] is recorded as 0.5/1 score. Further, the entries for the “Percent reduction” value in data set [4] (1 uM) and in data set [4] (10 uM) were 66/1% and 99/2%, respectively.
With `NC(N)=NC(=O)c1nc(Cl)c(Nc2ccc(F)cc2)nc1N` [5-(4-fluorophenyl)amiloride], the “Vpu Inhibition (score/# of times tested)” value in data set [1] is 0.4/6 score. In data set [2], the “229E E protein Inhibition (score)” value is given as 1.8 score. Moreover, the “SARS E protein Inhibition” value in data set [3] is given as 1.38/1 score. In addition, the entries for the “Percent reduction” value in data set [4] (1 uM), in data set [4] (10 uM) and in data set [4] (20 uM) were 16/1%, 25/1% and 4/1%, respectively.
Take `CN(C)c1nc(N)c(C(=O)N=C(N)N)nc1Cl` [5-(N,N-Dimethyl)amiloride hydrochloride]: the “Vpu Inhibition (score/# of times tested)” value in data set [1] is reported as 0.1/2 score. Further, the “229E E protein Inhibition (score)” value in data set [2] was 1.3 score. Moreover, in data set [3], the “SARS E protein Inhibition” value was 1.38/2 score. In addition, the “Percent reduction” value in data set [4] (1 uM) is 17/4%; in data set [4] (10 uM) it was 7/4%; in data set [4] (20 uM), 42/4%.
As to `N=C(N)NC(=O)/C=C/c1cc(Br)ccc1F` [5-bromo-2-fluorocinnamoylguanidine], in data set [1], the “Vpu Inhibition (score/# of times tested)” value is recorded as 3.5/2 score. For the same compound, the “229E E protein Inhibition (score)” value in data set [2] worked out at 1.4 score. In addition, the “SARS E protein Inhibition” value in data set [3] is on record as 2.00/1 score. The entries for the “Percent reduction” value in data set [4] (1 uM) and in data set [4] (10 uM) were 31/1% and 81/2%, respectively. The “Toxic (noted in place of plaque reduction)” value in data set [4] (20 uM) was “Toxic”.

The record behind these values is patent US11192863B2, “Antiviral compounds and methods” (Biotron Limited, priority 2003, dated 2021).
